Results reported in ChEMBL document CHEMBL1201862, “PubChem BioAssay data set” (2004).
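Growth conditions: 96-well plates. Treatment: test compound, 48 hours, 5 concentrations. Analysis: linear interpolation between bracketing concentrations; unreached endpoints set to highest concentration. Here, GI50 denotes the concentration required for 50% inhibition of growth.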 Active and inactive are the calls of the source. Rule as the data show it: active = GI50 up to about 1.1 µM and inactive = higher.

Columns and labels:
Assay in all cases: NCI-60 cell line screen, 48 h
A549 = system: A549
ACHN = system: ACHN
CAKI-1 = system: CAKI-1
CCRF-CEM = system: CCRF-CEM
HCT-116 = system: HCT-116
HCT-15 = system: HCT-15
HT-29 = system: HT-29
NCI-H460 = system: NCI-H460
NCI/ADR-RES = system: NCI/ADR-RES
OVCAR-4 = system: OVCAR-4
OVCAR-5 = system: OVCAR-5
PC-3 = system: PC-3
RPMI-8226 = system: RPMI-8226
SF-268 = system: SF-268
SK-OV-3 = system: SK-OV-3
SNB-19 = system: SNB-19
SNB-75 = system: SNB-75
SR = system: SR
TK-10 = system: TK-10
UACC-62 = system: UACC-62

Structure (SMILES) | GI50 (A549) | GI50 (ACHN) | GI50 (CAKI-1) | GI50 (CCRF-CEM) | GI50 (HCT-116) | GI50 (HCT-15) [µM] | GI50 (HT-29) | GI50 (NCI-H460) | GI50 (NCI/ADR-RES) | GI50 (OVCAR-4) | GI50 (OVCAR-5) | GI50 (PC-3) | GI50 (RPMI-8226) | GI50 (SF-268) | GI50 (SK-OV-3) | GI50 (SNB-19) | GI50 (SNB-75) | GI50 (SR) | GI50 (TK-10) | GI50 (UACC-62)
Oc1c(Cl)cc(CN(Cc2cc(Cl)c(O)c(Cl)c2)C2CCCCC2)cc1Cl | > 100 µM (inactive) | > 100 µM (inactive) | > 100 µM (inactive) | < 0.01 µM (active) | > 100 µM (inactive) | > 100 | > 100 µM (inactive) | > 100 µM (inactive) | > 100 µM (inactive) | > 100 µM (inactive) | > 100 µM (inactive) | > 100 µM (inactive) | > 100 µM (inactive) | > 100 µM (inactive) | > 100 µM (inactive) | > 100 µM (inactive) | > 100 µM (inactive) | > 100 µM (inactive) | > 100 µM (inactive) | > 100 µM (inactive)
O=c1c2cc([N+](=O)[O-])ccc2n(Cc2ccccc2)n1Cc1ccccc1 | 18.6 µM (inactive) | 16.2 µM (inactive) | 22.2 µM (inactive) | 14.7 µM (inactive) | 16.9 µM (inactive) | 20.1 | 15.9 µM (inactive) | 11.8 µM (inactive) | 11.2 µM (inactive) | 12.3 µM (inactive) | > 31.6 µM (inactive) | 12 µM (inactive) | 7.41 µM (inactive) | 24.4 µM (inactive) | > 10 µM (inactive) | 29.6 µM (inactive) | 10.4 µM (inactive) | 14 µM (inactive) | 22.8 µM (inactive) | 8.63 µM (inactive)
CCOP(=O)(OCC)C(C)(C)OC(=O)NC#N | > 100 µM (inactive) | > 100 µM (inactive) | > 100 µM (inactive) | > 100 µM (inactive) | > 100 µM (inactive) | > 100 | > 100 µM (inactive) | > 100 µM (inactive) | > 100 µM (inactive) | > 100 µM (inactive) | > 100 µM (inactive) | > 100 µM (inactive) | > 100 µM (inactive) | > 100 µM (inactive) | > 100 µM (inactive) | > 100 µM (inactive) | > 100 µM (inactive) | > 100 µM (inactive) | > 100 µM (inactive) | > 100 µM (inactive)
CCOC(=O)CC[C@H](N)C(=O)N[C@@H](Cc1ccc(N(CCCl)CCCl)cc1)C(=O)OCC | 2.73 µM (inactive) | < 0.0348 µM (active) | 0.358 µM (active) | < 0.0308 µM (active) | 0.851 µM (active) | 0.726 | 1.1 µM (active) | 0.0364 µM (active) | 1.52 µM (inactive) | 0.565 µM (active) | 2.39 µM (inactive) | 1.29 µM (inactive) | 2.54 µM (inactive) | 0.711 µM (active) | 1.48 µM (inactive) | 4.69 µM (inactive) | 1.22 µM (inactive) | < 0.0201 µM (active) | 1.47 µM (inactive) | 0.256 µM (active)
C1CCN(CCC2CCCCN2)CC1 (stereo not given) | > 100 µM (inactive) | > 100 µM (inactive) | > 100 µM (inactive) | > 100 µM (inactive) | > 100 µM (inactive) | > 100 | > 100 µM (inactive) | 55 µM (inactive) | > 100 µM (inactive) | > 100 µM (inactive) | > 100 µM (inactive) | > 100 µM (inactive) | > 100 µM (inactive) | > 100 µM (inactive) | > 100 µM (inactive) | > 100 µM (inactive) | > 100 µM (inactive) | > 100 µM (inactive) | > 100 µM (inactive) | > 100 µM (inactive)
O=c1c2c3c(sc2nc2n1N=CN(c1ccc(F)cc1)C2)CCCC3 | > 100 µM (inactive) | > 100 µM (inactive) | > 100 µM (inactive) | > 100 µM (inactive) | > 100 µM (inactive) | > 100 | > 100 µM (inactive) | > 100 µM (inactive) | > 100 µM (inactive) | > 100 µM (inactive) | > 100 µM (inactive) | > 100 µM (inactive) | > 100 µM (inactive) | > 100 µM (inactive) | > 100 µM (inactive) | > 100 µM (inactive) | > 100 µM (inactive) | > 100 µM (inactive) | > 100 µM (inactive) | > 100 µM (inactive)
c1ccc2c(c1)Nc1ccccc1[P+]21c2ccccc2Nc2ccccc21 | 0.182 µM (active) | 1.86 µM (inactive) | 1.61 µM (inactive) | 0.158 µM (active) | 0.151 µM (active) | 5.73 | 0.0853 µM (active) | 0.146 µM (active) | 69.2 µM (inactive) | 0.447 µM (active) | 0.281 µM (active) | 0.169 µM (active) | 0.0314 µM (active) | 0.383 µM (active) | 0.267 µM (active) | 0.299 µM (active) | 0.0466 µM (active) | 0.238 µM (active) | 0.581 µM (active) | 0.143 µM (active)
